PMC12040169 (PLOS Biology, 2025)

Assay: in vitro
Settings: human, hela cells

Point of comparison: `CNC(=O)Oc1ccccc1/C=N/N(C)C` [CBK023194], viability at 28.5 h, 10 µM 97.5%. Against it:
- CN(C)C(=O)Oc1cc(CN2CCCC2)c2ccn(S(=O)(=O)c3ccccc3)c2c1 [CBK137151T] — higher, 101%

Same assay, conditions: human, hela cells, % viability

Point of comparison: `CC1CCN(Cc2nc3c(c(=O)n(C)c(=O)n3C)n2CCN2CCOCC2)CC1` [CBK269291], viability at 28.5 h, 10 µM 108%. Against it:
- O=C(O)c1nn(-c2ccccc2)c2cc([N+](=O)[O-])ccc12 [CBK006532] — lower, 95%
- O=C(CN1CCC(NC(=O)c2ccccc2)CC1)Nc1ccccc1 [CBK074716] — lower, 96.7%
- CCOc1cccc(-c2cn3ccnc3c(NC3CC3)n2)c1 [CBK066736] — lower, 91.6%
- CCc1ccc(OCc2nnc(SCC(=O)NCCCC(=O)O)n2CC(C)C)cc1 [CBK295321] — lower, 101%
- O=C(Cc1nc2ccccc2[nH]1)N1CCOCC1 [CBK019505] — lower, 93.7%
- CC(CC(=O)O)CC(=O)N1CCC2(CC1)NC(=O)Cc1ccccc12 (centres unmarked) [CBK047281] — lower, 95.3%
- CC(C)CN1C[C@H]2N(C)C(=O)c3ccccc3C(=O)[C@@]2(C)C1 [CBK283477] — lower, 86.6%
- COc1ccc(C(=O)N2CCC3(CCCN(C(=O)c4cc(OC)c(OC)c(OC)c4)C3)C2)cc1OC (centres unmarked) [CBK131667] — lower, 86.7%
- Nc1ncc2ncn([C@@H]3O[C@H](CO)[C@H](O)C3O)c2n1 (some centres unmarked) [CBK201318] — lower, 92.8%
- Cn1c(SCC(=O)Nc2ccc(F)cc2)nnc1-c1cccnc1 [CBK267035] — lower, 94.7%
- O=C1NC2(CCCN(C(=O)c3ccco3)C2)Oc2ccccc21 (centres unmarked) [CBK284800] — lower, 99.8%
- Cc1nn(C)c(N2CCNCC2)c1NC(=O)c1cc(-c2ccccc2)oc1C [CBK050356T] — lower, 92.8%
- Cc1ccc(-c2csc3ncn(Cc4ccccc4C)c(=O)c23)cc1C [CBK099921] — lower, 104%
- Cc1cc(C)c2nc(NC(=O)c3ccc(=O)n(CC(=O)N(C)c4ccccc4)c3)sc2c1 [CBK286025] — lower, 91.5%
- Cc1cc(Cl)ccc1NC(=O)CCC(=O)N/N=C/c1cccnc1 [CBK261945] — lower, 100%
- Cc1ccc2cn[nH]c2c1 [CBK016109] — higher, 123%
- COc1ccc2c(c1)nc1n2CCC1OC(C)=O (centres unmarked) [CBK115379] — lower, 100%
- CC(=O)N1CCC(N2CC[C@H](c3nnc(-c4ccco4)o3)C2)CC1 [CBK289395] — lower, 86.9%
- CC(Oc1ccc2c(c1)OCO2)C(=O)NNC(=O)Nc1cccc(Cl)c1Cl (centres unmarked) [CBK266852] — lower, 86.5%
- CC(=O)N1CCC(Cn2nc(-c3ccccc3)ccc2=O)CC1 [CBK282405] — higher, 109%
- Clc1ccc(SCCCNCCN2CCOCC2)cc1 [CBK268603C] — lower, 90.3%
- C=CCNC(=O)C1(Cc2ccccc2-c2ccncc2)CCOCC1 [CBK284784] — lower, 102%
- CC(=O)NCCSc1cncc(NC(C)C)n1 [CBK105291] — lower, 84.9%
- CCC(=O)NCc1ccc(-c2cc(CN(C)C)n(C)n2)cc1 [CBK281668] — lower, 103%
- CSc1ccccc1NC(=O)Cn1c(-c2nonc2N)nc2ccccc21 [CBK266919] — lower, 90%
- CCC1CCCCN1C(=O)c1ccnc(C)c1 (centres unmarked) [CBK081093] — lower, 91.3%
- Cc1nn(C)c(C)c1CC(=O)N1CCc2c(sc3ncnc(N)c23)C1 [CBK306065] — lower, 86.9%
- O=C(O)COc1ccc(C=C2C(=O)c3ccccc3C2=O)cc1Cl [CBK263857] — lower, 87.3%
- O=C(O)CCn1c2ccc(Cl)cc2c2cc(Cl)ccc21 [CBK261415] — lower, 89.5%
- O=c1n(Cc2ccncc2)nc(C(F)(F)F)c2cccn12 [CBK283966] — lower, 87%
- Cn1cc(-c2nccnc2OCCN2CCCC2=O)cn1 [CBK107068] — lower, 106%
- Clc1ccc(-c2nc(-c3ccncc3)no2)c(Cl)c1 [CBK262615] — lower, 83.6%
- Cc1cc(C)c2c(CC(=O)NNC(=O)COc3ccccc3)coc2c1 [CBK269169] — lower, 94.1%
- Cc1cnn(C(C)C(=O)N2CCc3c(nc(N(C)C)nc3N(C)C)C2)c1 (centres unmarked) [CBK307556] — higher, 109%
- CN1C(=O)COc2ccccc2C/C=C/C[C@@H]2[C@H]1CCCN2S(=O)(=O)N1CCOCC1 [CBK292063] — lower, 90.6%
- Nc1ncc(-c2cccc(F)c2)nc1NCC1CCOCC1 [CBK063860] — lower, 98.7%
- CCN1CC2(CCC1=O)CCN(Cc1cccc(CCN)c1)CC2 [CBK306823] — lower, 100%
- COc1ccc([C@@]23CC[C@@H](NC(=O)Nc4ccc(F)c(C#N)c4)C[C@@H]2N(C)CC3)cc1OC [CBK051659T] — lower, 84%
- C/C(=N\NC(=O)C1CC1)c1ccc(C)cc1 [CBK016047] — lower, 90.7%
- CC(NC(=O)CC(F)(F)F)c1nc(-c2ccncc2)cs1 (centres unmarked) [CBK306370] — lower, 88.5%
- Cc1ccnc(SCC(=O)N2CCc3ccccc3C2)n1 [CBK288218] — lower, 91.7%
- Cc1ccc(/C(N)=N/OC(=O)CN(C)S(=O)(=O)c2ccc3ccccc3c2)cc1 [CBK267363] — lower, 104%
- CC1CC1c1nnc(C2(c3ccc(Br)cc3)CCOCC2)o1 (centres unmarked) [CBK304712] — lower, 94.1%
- CC(C)NC(=O)c1cc(C2CN(C(=O)CCc3ccccc3F)CCO2)nc2ccccc12 (centres unmarked) [CBK285893] — higher, 109%
- Cc1ccc(C(=O)NCC(c2ccccc2Cl)N2CCOCC2)c(=O)[nH]1 (centres unmarked) [CBK305928] — lower, 99.3%
- CC(C)N1CCC(CNC(=O)c2cccc(N3CCCC3=O)c2)CC1 [CBK282641] — lower, 104%
- COc1cc(CNCc2ccccn2)ccc1OCc1ccccc1C [CBK270108C] — lower, 89.3%
- COc1ccc(C)cc1S(=O)(=O)n1ccc2c(CNC3CCN(C(C)C)CC3)cccc21 [CBK113310T] — higher, 117%
- Cc1ccc(NC(=O)C2C3C=CC(O3)C2C(=O)O)cc1 (centres unmarked) [CBK263670] — lower, 91.4%
- COCCNc1nccnc1-c1ccccc1F [CBK038044] — lower, 97.6%
- O=C(NC(c1ccccc1)c1ccccc1)N1CCCC(CO)C1 (centres unmarked) [CBK156036] — lower, 95.4%
- Clc1ccc(COc2cncc(OC3CCN(CC4CC4)C3)n2)cc1Cl (centres unmarked) [CBK084443] — lower, 86.5%
- Nc1c(C(=O)NCc2ccco2)c2nc3ccccc3nc2n1C1CCCC1 [CBK269323] — lower, 106%
- O=[N+]([O-])c1cc(C(F)(F)F)ccc1N(CCO)CCO [CBK262238] — lower, 94.9%
- O=C1N=C(NCC2CCCCC2)OC1Cc1ccccc1 (centres unmarked) [CBK067023] — lower, 94.1%
- O=C(c1ccc(F)cc1)C1CCN(CCC(c2ccccc2)c2ccccc2)CC1 [CBK149138] — lower, 92.3%
- CC(NC(=O)N1CCCN(Cc2ccccn2)CC1)c1cnn(C)c1 (centres unmarked) [CBK307537] — lower, 102%
- CN1C(=O)COc2ccccc2C/C=C/C[C@@H]2[C@H]1CCCN2S(=O)(=O)c1cccnc1 [CBK292067] — lower, 102%
- c1ccc(Oc2cccc(C(N3CCOCC3)N3CCOCC3)c2)cc1 [CBK261798] — lower, 104%
- Cc1ccc(S(=O)(=O)N2CCC3(CC2)OCCO3)cc1Cl [CBK043731] — lower, 97.1%
- COc1cc(C=CC(=O)O)cc(S(=O)(=O)Nc2ccccc2C(=O)NCCc2ccccc2)c1OC [CBK297487] — lower, 99.5%
- CC(=O)N(CN1C(=O)CCC1=O)C(CC(C)C)C(=O)O (centres unmarked) [CBK286553] — lower, 87.7%
- O=S(=O)(Nc1cccc(Cl)c1Cl)c1cccc2nsnc12 [CBK067296] — lower, 86.3%
- CC(=O)N1CCc2sccc2C1c1ccc(NC(=O)C2CC2)cc1 (centres unmarked) [CBK282907] — lower, 87.8%
- Cc1ccccc1Nc1ccccc1C(=O)O [CBK012249] — higher, 113%
- CC(C)OC(=O)CSc1nnc(-c2cnccn2)n1Cc1ccco1 [CBK267586] — higher, 117%
- NC(=O)c1ccc(-c2cnc3[nH]c(=O)n(CCCN4CCOCC4)c3n2)cc1 [CBK065092] — lower, 102%
- Cc1c(NC(=O)CCCC(=O)O)c(=O)n(-c2ccccc2)n1C [CBK286532] — lower, 93.1%
- Cc1ccc(NC(=O)c2ccccc2OCC(=O)NC23CC4CC(CC(C4)C2)C3)cc1Cl [CBK265091] — lower, 101%
- O=C1c2ccccc2C(=O)N1CCOc1nccnc1-c1ccsc1 [CBK106760] — lower, 90.4%
- Cc1nc(C(F)(F)F)ccc1C(=O)Nc1nc(CC(N)=O)cs1 [CBK305776] — lower, 100%
- O=c1[nH]c2ccccc2n1CCCSc1nnc2c(n1)[nH]c1ccccc12 [CBK264917] — higher, 118%
- CCOC(=O)c1cnc2ccc(OC)cc2c1Nc1ccc(OC)cc1 [CBK095337] — lower, 93.7%
- N#Cc1ccc(CN2CCN(S(=O)(=O)c3ccc(-c4ccccc4)cc3)CC2)cc1 [CBK062752] — lower, 105%
- CC(=O)c1cccc(-n2c(CCC(=O)O)ccc2-c2ccc(Br)cc2)c1 [CBK131888] — lower, 98.2%
- CCc1nn(CC(=O)NC(C)(C)C)c(=O)c2cc3ccsc3n12 [CBK284183] — lower, 105%
- CS(=O)(=O)c1ccc(-c2nccnc2N[C@@H]2CCN(Cc3ccccc3)C2)cc1 [CBK037667] — lower, 102%
- COc1ccccc1N1CCN(C2CCN(S(=O)(=O)c3ccc(NC(C)=O)cc3)CC2)CC1 [CBK264688] — lower, 93.7%
- COCCn1cnnc1C(C)NC(=O)N(C)Cc1nc2ccccc2s1 (centres unmarked) [CBK307427] — lower, 88.2%
- CCC1CCCCN1C(=O)Cn1cnc2c(Cl)cc(Cl)cc2c1=O (centres unmarked) [CBK305833] — lower, 90%
- CC(C)c1nc(NCCc2nnc3n2CCCC3)nc(N(C)C)n1 [CBK306426] — higher, 112%
- CCCNCCc1ccc(NC(=O)NCCc2ccccc2)cc1 [CBK173873T] — lower, 93.5%
- Cc1cc(=O)n(CC(=O)NC(Cc2ccncc2)[C@H]2C[C@H](O)C2)nc1C (some centres unmarked) [CBK306641] — lower, 101%
- O=C(COc1ccccc1[N+](=O)[O-])Nc1cnc(-c2cccc(C(F)(F)F)c2)c(-c2ccco2)n1 [CBK036899] — lower, 86.3%
- CN1CC=C(/C=C/C2=Cc3ccccc3OC2)CC1 [CBK283857] — lower, 89.1%

Same assay, conditions: human, hela cells, % viability, bulk resorufin, single well

For `COc1cccc2c1OC1(CCN(C(=O)c3ccno3)CC1)OC2` [CBK061071], the viability at 28.5 h, 10 µM was 97%.
